Tests used:
Type in all cases: cell-based, human
[1] = test system: T84 monolayers co-cultured with CD3/28-activated PBMC; test: T84/PBMC co-culture, barrier integrity by transepithelial electrical resistance (TER); details: apical exposure, 24 h and 48 h, vs medium control
Method: (§1) The T84 cells are grown in DMEM/F-12 (1:1) supplemented with GlutaMAX®, 10% fetal bovine serum and […] penicillin/streptomycin. (T84 cells (human colorectal carcinoma cell line, ATCC® CCL-248™, Manassas, Va., USA). T84 cells were seeded in 12-well transwell insert filters (Coming Inc., NY, USA) and cultured in T84 cell medium for 3-4 weeks till co-culture with PBMC. Transepithelial electrical resistance (TER) was measured during culture, which generally increases to >1500 Ω×cm^2 and becomes stable after 3-4 weeks of culture. When TER was ≥2000 Ω×cm^2, T84 monolayers 14 were co-cultured with 1.5×10^6 PBMC 16 in the basolateral chamber.
(§2) The PBMC 16 for use in the co-cultures are isolated from 20 mL fresh blood from healthy controls (n=6) and subjects with food allergy (n=8) (Table 1). The average age of healthy controls was 36 (range 24-54) vs. 51 (range 26-74) for food allergic subjects (P>0.05). PBMC were isolated by density gradient centrifugation using lymphocyte separation medium according to manufacturer's protocol (Cellgro, Mediatec, Inc., Manassas, Va., USA). PBMC were collected in RPMI1640 supplemented with L-glutamine (Gibco), 2.5% fetal bovine serum, 1% penicillin/streptomycin and 1% sodium pyruvate (Sigma, St. Louis, Mo., USA) (PBMC medium) at 1×10^6 cell/mL.
(§3) T84/PBMC co-cultures were maintained in PBMC medium. PBMC were stimulated using CD3 and CD28 antibodies (clone OKT3 and CD28.2, 0.2 μg/mL; eBioscience, San Diego, Calif., USA) and simultaneously IEC were stimulated apically with Pam3CSK4, LPS or type C CpG oligonucleotide M362 (Invivogen, San Diego, Calif., USA) as previously described. Cultures were maintained at 37° C./5% CO2 for indicated time points.
(§4) The barrier integrity of T84 monolayers was assessed by measuring the TER and paracellular permeability to 4 kDa FITC-dextran. In short, TER was measured using a dual electrode system designed for cell culture insert analysis (EVOM; World Precision Instruments, Sarasota, Fla.) prior to co-culture and at indicated time points during co-culture. Data is reported as percentage of the initial TER value measured before co-culture. For assessment of permeability, T84 monolayers were separated from PBMC and cultured in PBMC medium for 1 h. The monolayers were then apically exposed to 1 mg/mL 4 kDa FITC-dextran (Sigma) and basolateral supernatants were collected after 60 min. FITC-dextran was measured at excitation wavelength 485 nm and emission wavelength 520 nm. The 4 kDa FITC-dextran flux was expressed as pmol/(h×cm^2).
In some experiments, PBMC are stimulated using antibodies against CD3 and CD28 and T84 cell monolayers were simultaneously exposed to synthetic TLR ligands or fermentation product 12 (co-culture of stool samples without or with different prebiotics). SCFA content (acetate, propionate and butyrate) in the fermentation products (“Fermenta”) 12 was analyzed by HPLC. TER was measured at t=0 h, t=4 h, t=18 h and t=24 h to monitor changes in the barrier integrity of the T84 monolayers. Non-limiting example of prebiotics include commercially available inulin and fructose oligosaccharides (FOS) that promote production of Butyrate by intestinal bacteria, galactose oligosaccharides (GOS) that promote growth of bifidobacteria in the intestine or prebiotics like resistant starch, corn arbionoxylan that promotes propionate. Other prebiotics may also be used.

[2] = test system: T84 monolayers co-cultured with CD3/28-activated PBMC; test: T84/PBMC co-culture, paracellular permeability to 4 kDa FITC-dextran; details: PBMC from healthy controls; 48 h co-culture; vs medium control
Method: as §1, §2
T84/PBMC co-cultures were maintained in PBMC medium. […]
as §4, with “For assessment of permeability, T84 monolayers were separated from PBMC and cultured in PBMC medium for 1 h. The monolayers were then apically exposed to 1 mg/mL 4 kDa FITC-dextran (Sigma) and basolateral supernatants were collected after 60 min.” left out

T84/PBMC co-cultures = test: Cytokine production in T84/PBMC co-cultures with apical TLR ligands (ELISA); details: T84/PBMC, 24 h, mean ± SEM
Method: as §1, §2, §3
(§5) Cytokine levels were measured by ELISA. IL-6, IL-8, IL-10, IL-13, IFN-γ and TNF-α were measured using the Ready-Set-Go!® ELISA kit from eBioscience according to manufacturer's protocol (eBioscience, Inc., San Diego, Calif., USA).
(§6) To evaluate whether epithelial TLR ligation modulates cytokine production by the PBMC, basolateral supernatants were collected 24 h after co-culture. Exposure of CD3/28-activated PBMC in the absence of IEC to TLR ligands served as a control to evaluate the contribution of IEC in modulating the cytokine production by PBMC. First we evaluated the production of IFN-γ and IL-13 as a reflection of a Th1 and Th2 type effector response (Table 3). No significant changes in the production of IFN-γ or IL-13 were observed, though IFN-γ production by the PBMC from food allergic subjects tended to be lower in T84/PBMC co-cultures (P=0.093). […] This was not observed when PBMC were stimulated with CpG DNA in absence of T84 cells (FIG. 7B).

PBMC = test: Cytokine production by CD3/28-activated PBMC in absence of T84 cells (ELISA); details: for IFN-γ / IL-6 / IL-8 / IL-10 / IL-13 / TNF-α: PBMC in absence of T84 cells, 24 h, mean ± SEM; for IL-10/IL-13 ratio: absence of T84 cells
Method: as §2, §3, §5, §6

[3] = PBMC from food allergic subjects

Substance	TER of T84 monolayers [1, 3]	TER of T84 monolayers ([1]; PBMC from healthy controls)	permeability of T84 monolayers to 4 kDa FITC-dextran [2]	IL-6 (T84/PBMC co-cultures; FA (food allergy) PBMC)	IFN-γ (T84/PBMC co-cultures; FA PBMC)	IL-8 (T84/PBMC co-cultures; FA PBMC)	IL-10 (T84/PBMC co-cultures; FA PBMC)	IL-13 (T84/PBMC co-cultures; FA PBMC)	TNF-α (T84/PBMC co-cultures; FA PBMC)	IL-6 (T84/PBMC co-cultures; HC (healthy control) PBMC)	IFN-γ (T84/PBMC co-cultures; HC PBMC)	IL-8 (T84/PBMC co-cultures; HC PBMC)	IL-10 (T84/PBMC co-cultures; HC PBMC)	IL-13 (T84/PBMC co-cultures; HC PBMC)	TNF-α (T84/PBMC co-cultures; HC PBMC)	IFN-γ (PBMC; FA)	IL-6 (PBMC; FA)	IL-8 (PBMC; FA)	IL-10 (PBMC; FA)	IL-13 (PBMC; FA)	also measured
Pam3CSK4	did not affect	did not affect	increased the permeability	5968 ± 1324 pg/mL	6533 ± 2125 pg/mL	16854 ± 4954 pg/mL	853.3 ± 212.9 pg/mL	40.8 ± 12.1 pg/mL	2251 ± 534 pg/mL	7209 ± 1531 pg/mL	8614 ± 2455 pg/mL	23052 ± 5527 pg/mL	581.1 ± 110.7 pg/mL	37.8 ± 9.2 pg/mL	3073 ± 509 pg/mL	2824 ± 1163 pg/mL	8073 ± 2055 pg/mL	32940 ± 4869 pg/mL	422.8 ± 98.6 pg/mL	59.4 ± 15.2 pg/mL	TNF-α (PBMC; FA): 979.1 ± 244^ pg/mL; IFN-γ (PBMC; HC): 5663 ± 1768 pg/mL; IL-6 (PBMC; HC): 9472 ± 2153 pg/mL; IL-8 (PBMC; HC): 43737 ± 2856 pg/mL; IL-10 (PBMC; HC): 254.7 ± 135.4 pg/mL; IL-13 (PBMC; HC): 59.2 ± 17.0 pg/mL; TNF-α (PBMC; HC): 2206 ± 1155 pg/mL
LPS	did not affect	did not affect	increased the permeability	7410 ± 2112 pg/mL	4390 ± 1700 pg/mL	17103 ± 4334 pg/mL	777.6 ± 163.2 pg/mL	33.8 ± 11.0 pg/mL	2403 ± 516 pg/mL	9040 ± 2424 pg/mL	10392 ± 2967 pg/mL	23124 ± 5683 pg/mL	632.7 ± 125.1 pg/mL	31.3 ± 9.1 pg/mL	2928 ± 712 pg/mL	2188 ± 908 pg/mL	9909 ± 2073 pg/mL	35682 ± 4770 pg/mL	586 ± 159.4 pg/mL	34.0 ± 10.7 pg/mL	TNF-α (PBMC; FA): 945.4 ± 294 pg/mL; IFN-γ (PBMC; HC): 6070 ± 2282 pg/mL; IL-6 (PBMC; HC): 12399 ± 2174 pg/mL; IL-8 (PBMC; HC): 43034 ± 2960 pg/mL; IL-10 (PBMC; HC): 545.4 ± 134.7 pg/mL; IL-13 (PBMC; HC): 28.3 ± 8.7 pg/mL; TNF-α (PBMC; HC): 2607 ± 1165 pg/mL; IL-10/IL-13 ratio (PBMC; [3]): increased; IL-10/IL-13 ratio (PBMC; PBMC from healthy controls): enhanced
